According to patent US12077503B2, “Substituted cyclic amides and their use as herbicides” (FMC CORPORATION, priority 2015, dated 2024):

What was measured:
Test in all cases: Test C preemergence
Type in all cases: in vivo
[1] = test system: wheat (winter wheat, Triticum aestivum); conditions: for Plant response rating, Wheat: scale 0 to 100, 0 no effect, 100 complete control
Method in brief: (§1)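 Visual 0 (no effect) to 100 (complete control) ratings versus controls, taken 13–15 d after treatment in the greenhouse; dash means no result. Compounds in a surfactant-containing non-phytotoxic solvent blend were applied preemergence to seeds in loam-sand soil or postemergence to 1- to 4-leaf plants (2–18 cm) in peat-based medium.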

[2] = test system: barnyardgrass (Echinochloa crus-galli); conditions: for Plant response rating, Barnyardgrass: scale 0 to 100, 0 no effect, 100 complete control
Method in brief: as §1

[3] = test system: blackgrass (Alopecurus myosuroides); conditions: for Plant response rating, Blackgrass: scale 0 to 100, 0 no effect, 100 complete control
Method in brief: as §1

[4] = test system: foxtail, giant (giant foxtail, Setaria faberii); conditions: for Plant response rating, Foxtail, Giant: scale 0 to 100, 0 no effect, 100 complete control
Method in brief: as §1

[5] = test system: nutsedge, yellow (yellow nutsedge, Cyperus esculentus); conditions: for Plant response rating, Nutsedge, Yellow: scale 0 to 100, 0 no effect, 100 complete control
Method in brief: as §1

corn (Zea mays) = conditions: for Plant response rating, Corn: scale 0 to 100, 0 no effect, 100 complete control
Method in brief: as §1

soybean (Glycine max) = conditions: for Plant response rating, Soybean: scale 0 to 100, 0 no effect, 100 complete control
Method in brief: as §1

[6] = test system: Galium (catchweed bedstraw, Galium aparine); conditions: for Plant response rating, Galium: scale 0 to 100, 0 no effect, 100 complete control
Method in brief: as §1

[7] = test system: velvetleaf (Abutilon theophrasti); conditions: for Plant response rating, Velvetleaf: scale 0 to 100, 0 no effect, 100 complete control
Method in brief: as §1

[8] = test system: oilseed rape (Brassica napus); conditions: for Plant response rating, Oilseed Rape: scale 0 to 100, 0 no effect, 100 complete control
Method in brief: as §1

[9] = test system: waterhemp (common waterhemp, Amaranthus rudis); conditions: for Plant response rating, Waterhemp: scale 0 to 100, 0 no effect, 100 complete control
Method in brief: as §1

[10] = test system: ryegrass, Italian (Italian ryegrass, Lolium multiflorum); conditions: for Plant response rating, Ryegrass, Italian: scale 0 to 100, 0 no effect, 100 complete control
Method in brief: as §1

[11] = test system: morningglory (Ipomoea coccinea); conditions: for Plant response rating, Morningglory: scale 0 to 100, 0 no effect, 100 complete control
Method in brief: as §1

[12] = test system: lambsquarters (Chenopodium album); conditions: for Plant response rating, Lambsquarters: scale 0 to 100, 0 no effect, 100 complete control
Method in brief: as §1

[13] = test system: johnsongrass (Sorghum halepense); conditions: for Plant response rating, Johnsongrass: scale 0 to 100, 0 no effect, 100 complete control
Method in brief: as §1

[14] = test system: ragweed (common ragweed, Ambrosia elatior); conditions: for Plant response rating, Ragweed: scale 0 to 100, 0 no effect, 100 complete control
Method in brief: as §1

[15] = test system: crabgrass, large (large crabgrass, Digitaria sanguinalis); conditions: for Plant response rating, Crabgrass, Large: scale 0 to 100, 0 no effect, 100 complete control
Method in brief: as §1

[16] = test system: pigweed (Amaranthus retroflexus); conditions: for Plant response rating, Pigweed: scale 0 to 100, 0 no effect, 100 complete control
Method in brief: as §1

[17] = 31 g ai/ha, 0 is no effect, 100 is complete control

SMILES: O=C1NCC(c2cccc(OC(F)(F)C(F)F)c2)C1C(=O)Nc1ccccc1F (racemic) [Compound 695]
- Plant response rating (scale of 0 to 100), Wheat [1, 17]: 40
- Plant response rating, Wheat ([1]; 62 g ai/ha): 5
- Plant response rating, Wheat ([1]; 125 g ai/ha): 35
- Plant response rating, Wheat ([1]; 250 g ai/ha): 60
- Plant response rating (scale of 0 to 100), Barnyardgrass [2, 17]: 90
- Plant response rating, Barnyardgrass ([2]; 62 g ai/ha): 90
- Plant response rating, Barnyardgrass ([2]; 125 g ai/ha): 90
- Plant response rating, Barnyardgrass ([2]; 250 g ai/ha): 90
- Plant response rating (scale of 0 to 100), Blackgrass [3, 17]: 0
- Plant response rating, Blackgrass ([3]; 62 g ai/ha): 20
- Plant response rating, Blackgrass ([3]; 125 g ai/ha): 90
- Plant response rating, Blackgrass ([3]; 250 g ai/ha): 90
- Plant response rating (scale of 0 to 100), Foxtail, Giant [4, 17]: 80
- Plant response rating, Foxtail, Giant ([4]; 62 g ai/ha): 85
- Plant response rating, Foxtail, Giant ([4]; 125 g ai/ha): 90
- Plant response rating, Foxtail, Giant ([4]; 250 g ai/ha): 90
- Plant response rating (scale of 0 to 100), Nutsedge, Yellow [5, 17]: 0
- Plant response rating, Nutsedge, Yellow ([5]; 62 g ai/ha): 0
- Plant response rating, Nutsedge, Yellow ([5]; 125 g ai/ha): 0
- Plant response rating, Nutsedge, Yellow ([5]; 250 g ai/ha): 0
- Plant response rating (scale of 0 to 100), Corn (corn (Zea mays); [17]): 0
- Plant response rating, Corn (corn (Zea mays); 62 g ai/ha): 25
- Plant response rating, Corn (corn (Zea mays); 125 g ai/ha): 70
- Plant response rating, Corn (corn (Zea mays); 250 g ai/ha): 80
- Plant response rating (scale of 0 to 100), Soybean (soybean (Glycine max); [17]): 0
- Plant response rating, Soybean (soybean (Glycine max); 62 g ai/ha): 0
- Plant response rating, Soybean (soybean (Glycine max); 125 g ai/ha): 0
- Plant response rating, Soybean (soybean (Glycine max); 250 g ai/ha): 0
- Plant response rating (scale of 0 to 100), Galium [6, 17]: 50
- Plant response rating, Galium ([6]; 62 g ai/ha): 80
- Plant response rating, Galium ([6]; 125 g ai/ha): 85
- Plant response rating, Galium ([6]; 250 g ai/ha): 90
- Plant response rating (scale of 0 to 100), Velvetleaf [7, 17]: 0
- Plant response rating, Velvetleaf ([7]; 62 g ai/ha): 10
- Plant response rating, Velvetleaf ([7]; 125 g ai/ha): 30
- Plant response rating, Velvetleaf ([7]; 250 g ai/ha): 55
- Plant response rating (scale of 0 to 100), Oilseed Rape [8, 17]: 0
- Plant response rating, Oilseed Rape ([8]; 62 g ai/ha): 40
- Plant response rating, Oilseed Rape ([8]; 125 g ai/ha): 85
- Plant response rating, Oilseed Rape ([8]; 250 g ai/ha): 80
- Plant response rating (scale of 0 to 100), Waterhemp [9, 17]: 55
- Plant response rating, Waterhemp ([9]; 62 g ai/ha): 75
- Plant response rating, Waterhemp ([9]; 125 g ai/ha): 70
- Plant response rating, Waterhemp ([9]; 250 g ai/ha): 85
- Plant response rating (scale of 0 to 100), Ryegrass, Italian [10, 17]: 0
- Plant response rating, Ryegrass, Italian ([10]; 62 g ai/ha): 60
- Plant response rating, Ryegrass, Italian ([10]; 125 g ai/ha): 30
- Plant response rating, Ryegrass, Italian ([10]; 250 g ai/ha): 30
- Plant response rating (scale of 0 to 100), Morningglory [11, 17]: 0
- Plant response rating, Morningglory ([11]; 62 g ai/ha): 0
- Plant response rating, Morningglory ([11]; 125 g ai/ha): 5
- Plant response rating, Morningglory ([11]; 250 g ai/ha): 10
- Plant response rating (scale of 0 to 100), Lambsquarters [12, 17]: 25
- Plant response rating, Lambsquarters ([12]; 62 g ai/ha): 40
- Plant response rating, Lambsquarters ([12]; 125 g ai/ha): 65
- Plant response rating, Lambsquarters ([12]; 250 g ai/ha): 80
- Plant response rating (scale of 0 to 100), Johnsongrass [13, 17]: 40
- Plant response rating, Johnsongrass ([13]; 62 g ai/ha): 80
- Plant response rating, Johnsongrass ([13]; 125 g ai/ha): 80
- Plant response rating, Johnsongrass ([13]; 250 g ai/ha): 85
- Plant response rating (scale of 0 to 100), Ragweed [14, 17]: 35
- Plant response rating, Ragweed ([14]; 62 g ai/ha): 70
- Plant response rating, Ragweed ([14]; 125 g ai/ha): 75
- Plant response rating, Ragweed ([14]; 250 g ai/ha): 80
- Plant response rating (scale of 0 to 100), Crabgrass, Large [15, 17]: 90
- Plant response rating, Crabgrass, Large ([15]; 62 g ai/ha): 90
- Plant response rating, Crabgrass, Large ([15]; 125 g ai/ha): 95
- Plant response rating, Crabgrass, Large ([15]; 250 g ai/ha): 95
- Plant response rating (scale of 0 to 100), Pigweed [16, 17]: 50
- Plant response rating, Pigweed ([16]; 62 g ai/ha): 60
- Plant response rating, Pigweed ([16]; 125 g ai/ha): 65
- Plant response rating, Pigweed ([16]; 250 g ai/ha): 70
